Measured values taken from patent US8816095B2, “Na channels, disease, and related assays and compositions” (Georgetown University, priority 2008, dated 2014).

Assays:
site 2 of the VGSC = test: [3H]-BTX-B displacement assay at site 2; format: binding, rat; conditions: for % [3H]-BTX Inhibition (40 μM) / % [3H]-BTX Displacement (40 μm): rat brain synaptoneurosomes; for % [3H]-BTX Inhibition (40 μM): Table 9; for % [3H]-BTX Displacement (40 μm): Table 13
human Nav1.2 = molecular target: T1, human Nav1.2 (Homo sapiens, UniProt Q99250); test: hNav1.2 functional block, whole-cell patch clamp; format: cell-based
T1 construct: host or cells: HEK
T1 sequence (Q99250 whole entry): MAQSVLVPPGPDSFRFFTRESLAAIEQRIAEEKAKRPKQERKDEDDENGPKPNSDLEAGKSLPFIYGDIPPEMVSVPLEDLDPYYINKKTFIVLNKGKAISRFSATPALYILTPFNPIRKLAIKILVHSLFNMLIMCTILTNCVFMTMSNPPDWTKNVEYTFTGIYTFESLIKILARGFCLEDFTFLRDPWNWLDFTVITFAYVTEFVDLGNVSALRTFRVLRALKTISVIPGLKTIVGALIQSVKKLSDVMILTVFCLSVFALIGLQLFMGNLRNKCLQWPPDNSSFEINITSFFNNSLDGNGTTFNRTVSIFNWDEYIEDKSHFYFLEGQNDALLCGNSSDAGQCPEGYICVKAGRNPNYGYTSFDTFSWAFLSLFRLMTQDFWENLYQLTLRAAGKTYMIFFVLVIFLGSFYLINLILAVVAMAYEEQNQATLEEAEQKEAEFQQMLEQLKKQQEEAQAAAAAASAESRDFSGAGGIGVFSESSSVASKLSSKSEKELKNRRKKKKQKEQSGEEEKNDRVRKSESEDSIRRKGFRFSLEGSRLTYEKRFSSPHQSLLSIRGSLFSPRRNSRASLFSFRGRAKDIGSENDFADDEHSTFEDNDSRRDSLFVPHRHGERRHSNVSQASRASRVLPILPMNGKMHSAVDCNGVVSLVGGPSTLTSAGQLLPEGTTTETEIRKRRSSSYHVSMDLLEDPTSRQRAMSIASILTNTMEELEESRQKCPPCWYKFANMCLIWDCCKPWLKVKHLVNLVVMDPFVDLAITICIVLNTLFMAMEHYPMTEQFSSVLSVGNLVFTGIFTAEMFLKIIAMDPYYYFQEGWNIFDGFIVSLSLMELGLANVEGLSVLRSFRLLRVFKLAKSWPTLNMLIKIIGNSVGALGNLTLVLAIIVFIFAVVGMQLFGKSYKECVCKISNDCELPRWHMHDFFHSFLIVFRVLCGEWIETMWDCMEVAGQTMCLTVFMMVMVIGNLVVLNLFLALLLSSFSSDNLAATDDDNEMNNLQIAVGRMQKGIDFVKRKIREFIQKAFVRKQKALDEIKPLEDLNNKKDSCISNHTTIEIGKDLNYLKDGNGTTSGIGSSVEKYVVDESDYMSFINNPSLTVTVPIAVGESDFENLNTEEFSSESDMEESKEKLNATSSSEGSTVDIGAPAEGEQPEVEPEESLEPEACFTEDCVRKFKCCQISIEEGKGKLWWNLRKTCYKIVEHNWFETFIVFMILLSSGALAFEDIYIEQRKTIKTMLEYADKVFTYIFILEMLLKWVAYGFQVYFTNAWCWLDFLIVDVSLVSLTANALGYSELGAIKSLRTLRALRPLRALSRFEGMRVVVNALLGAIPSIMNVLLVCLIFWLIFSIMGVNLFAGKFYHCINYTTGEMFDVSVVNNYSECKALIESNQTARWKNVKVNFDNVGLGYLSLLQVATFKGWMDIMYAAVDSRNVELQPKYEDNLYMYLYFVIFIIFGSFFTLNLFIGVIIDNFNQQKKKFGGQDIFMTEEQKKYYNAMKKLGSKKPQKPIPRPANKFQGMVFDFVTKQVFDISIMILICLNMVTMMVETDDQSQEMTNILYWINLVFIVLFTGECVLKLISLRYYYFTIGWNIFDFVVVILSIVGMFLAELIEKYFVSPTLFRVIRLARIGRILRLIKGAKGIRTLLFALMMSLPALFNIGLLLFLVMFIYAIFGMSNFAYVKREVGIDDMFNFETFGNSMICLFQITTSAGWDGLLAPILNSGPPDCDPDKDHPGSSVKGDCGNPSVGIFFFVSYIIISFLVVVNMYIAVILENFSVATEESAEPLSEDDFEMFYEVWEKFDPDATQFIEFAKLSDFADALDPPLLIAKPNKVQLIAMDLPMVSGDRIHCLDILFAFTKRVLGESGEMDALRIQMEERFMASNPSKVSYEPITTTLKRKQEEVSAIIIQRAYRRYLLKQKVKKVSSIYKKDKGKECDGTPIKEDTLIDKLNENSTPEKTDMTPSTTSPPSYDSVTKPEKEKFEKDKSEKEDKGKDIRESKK
Experimental: Of the 20 analogs tested, six had [^3H]-BTX displacement characteristics much greater then that of phenyloin (Table 7), see Schemes 5, 6, 7 and 8 for the chemical synthesis and structure of the tested compounds. Compound 26, having the greatest [^3H]-BTX displacement at 86% ([…]), was further tested for VGSC functional blocking ability in HEK cells stably expressing Nav1.2 (Table 8).
In addition the functional blocking ability of 9 was tested after site two affinities was confirmed. The potential reason for this increased blocking ability stems from the dansyl addition in a hydrophobically receptive region of the binding site in the VGSC (Anderson, J. D., et al. Mol. Cancer. Ther. 2003, 2, 1149-1154; Lenkowski, P et al. Neuropharmacology, 2007, 52, 1044-1054). This enhanced potency could be due to the dansyl substituent interacting with L1465 and 11469, located in S6 of domain III in the binding site, which are believed to be the source of hydrophobic receptivity 17. The ability to inhibit VGSC currents is an important property and represents functional blocking. The ability of CDPNS to inhibit sodium channel currents was assessed at 10 and 100 μM against human Nav1.2 by patch clamp assay (FIG. 10).
Human embryonic kidney cells (HEK) cells stably expressing human Nav1.2 were a kind gift from Dr. H. A. Hartmann (University of Baltimore, Md., USA) and were grown in DMEM/F12 media (Invitrogen, Corp, CA, USA) supplemented with 10% fetal bovine serum, penicillin (100 U/ml), streptomycin (100 μg/ml) and G418 (500 μg/ml; Sigma, Mo., USA). Cells were grown in a humidified atmosphere of 5% CO2 and 95% air at 37° C.
Sodium currents were recorded using the whole-cell configuration of the patch clamp recording technique with an Axopatch 200 amplifier (Axon Instruments, Foster City, Calif.). All voltage protocols were applied using pCLAMP 9 software (Axon, USA) and a Digidata 1322A (Axon, USA). Currents were amplified and low pass filtered (2 kHz) and sampled at 33 kHz. Borosilicate glass pipettes were pulled using a Brown-Flaming puller (model P87, Sutter Instruments Co, Novato, Calif.) and heat polished to produce electrode resistances of 0.5-1.5 MΩ when filled with the following electrode solution (in mM); CsCl 130, MgCl2 1, MgATP 5, BAPTA 10, HEPES 5 (pH adjusted to 7.4 with CsOH). Cells were plated on glass coverslips and superfused with solution containing the following composition; (in mM) NaCl 130, KCl 4, CaCl2 1, MgCl2 5, HEPES 5, and glucose 5 (pH adjusted to 7.4 with NaOH).
Compound 26 was prepared as 100 mM stock solutions in dimethyl sulfoxide (DMSO) and diluted to desired concentration in perfusion solution. The maximum DMSO concentration used was 0.1% and had no effect on current amplitude. All experiments were performed at room temperature (20-22° C.). After establishing whole-cell, a minimum series resistance compensation of 75% was applied. Sodium currents were elicited by a depolarizing step from a holding potential of −100 mV to +10 mV for a duration of 25 ms at 15 s intervals. Compound 26 was applied after a 3 min control period and continued until a steady state current amplitude was observed. All data represent percentage mean block±standard error of the mean (S.E.M.).

PC-3 cells [1] = test: PC-3 MTT cell viability assay; format: cell-based; conditions: Homo sapiens, read-out: GI50 ± SEM (10 μM), DPH and JDA-3-135 previously determined
Source text: Following the determination that compound CDPNS inhibits the VGSCs that are present in androgen independent PC-3 cells, a 3-(4,5-Dimethylthiazol-2-yl)-2,5-diphenyltetrazolium bromide (MTT) cell viability assay was utilized to measure the ability of compound CDPNS to inhibit PC-3 cell growth via VGSC blockade. In this experiment data yielded from CDPNS was compared to previously determined DPH and JDA-3-135 antiproliferation data (Table 10).

PC-3 cells [2] = test: PC-3 cell growth inhibition assay (WST-8); format: cell-based; conditions: Homo sapiens, WST-8, 48 hours
Experimental: The effect of compound 2 was studied on the proliferation of human androgen independent prostate cancer (PC-3) cells, using a cell viability assay with WST-8. […].
PC-3 cells were added to the wells of a 96 well plate at 7500 cells per well in 100 uL of RPMI medium with 10% serum and allowed to plate down overnight. The medium was then removed and replaced with serum free medium containing the appropriate concentration of drug. DMSO concentration was kept below 1%. At this time WST-8 cell counting reagent was added to the control (T=0) wells and allowed to incubate for 2 hours and the absorbance was read at 450 nm to determine the starting number of cells per well. The plates were incubated for 48 hours, the medium was removed and the wells were washed with 100 uL of PBS. The PBS was removed that the wells were filled with 110 uL of serum free RPMI media containing the WST-8 reagent. After two hours of incubation, the plates absorbance was read at 450 nm and normalized to the control value.

human prostate tissue = test: Staining of human prostate paraffin embedded tissue slices; conditions: 100 μM
Experimental: The binding and localization of compound 26 in prostate and prostate cancer tissue was studied. Human prostate paraffin embedded tissue slices were stained with 100 μM of compound 26 and dansyl amine.

hNav1.2 = hNav1.2 (Homo sapiens, UniProt Q99250); conditions: whole-cell patch clamp, hNav1.2 expressing HEK cells; read-out: hNav1.2 electrophysiology IC50; cited from earlier work
Chain of hNav1.2 (Q99250 whole entry): as above

[3] = read-out: GI50 in PC3 prostate cancer cells

| Structure (SMILES) | % [3H]-BTX Inhibition (40 μM) (site 2 of the VGSC) | % [3H]-BTX Displacement (40 μm) (site 2 of the VGSC) | [3H]-BTX-B Binding Data, Displacement % (site 2 of the VGSC; Screen at 40 μM, 2 replicates, referenced to Aconitine) | % hNaV 1.2 Functional Block (10 μM) (human Nav1.2; Table 8) | % hNaV 1.2 Functional Block (10 μM) (human Nav1.2; Table 8, listed as CDPNS) | % hNaV 1.2 Functional Block (10 μM) (human Nav1.2; Table 9) | % hNaV 1.2 Functional Block (10 μM) (human Nav1.2; Table 9, listed as CDPNS) | GI50 (PC-3 cells [1]) | GI50 (PC-3 cells [2]; [3]) | GI50 (PC-3 cells [2]; read-out: PC3 GI50 (μg)) | binding to human prostate tissue (microscopy) (human prostate tissue) | % Nav 1.2 Functional Block (10 μm) (human Nav1.2; 10 μm, Table 13) | IC50 (hNav1.2) |
| --- | --- | --- | --- | --- | --- | --- | --- | --- | --- | --- | --- | --- | --- |
| CN(C)c1cccc2c(S(=O)(=O)NCCCCCC3(c4cccc(Cl)c4)NC(=O)NC3=O)cccc12 (centres unmarked) [Compound 26, N-(5-(4-(3-chlorophenyl)-2,5-dioxoimidazolidin-4-yl)pentyl)-5-(dimethylamino)naphthalene-1-sulfonamide] | 86.4% | 86.4% | 86% | 58.9±4.1% | 58.9±4.15% | 58.9 ± 4.1% | 58.9±4.1% | 36 µM | 9.95 ± 0.07 µM | 9.95 ± 0.07 µM | visible due to binding | – | – |
| CCCCCCCC1(c2cccc(Cl)c2)NC(=O)NC1=O (centres unmarked) [JDA-3-135] | 69.6% | 69.6% | – | 30.5 ± 5.1% | – | 30.5 ± 5.1% | – | 18.6 ± 1.5 µM | 18.97 ± 0.04 µM | 18.97 ± 0.04 µM | – | 30.5 ± 5.1% | 13.9 µM |
